Like-named read-outs stand apart in the source and are kept apart here.
How the values were obtained:
[1] = Brain PET imaging with 1TC kinetic modeling; conditions: rhesus monkey, in vivo
Protocol: (§1) A total of 10 PET imaging experiments with [^18F]SDM-16 were performed in rhesus monkeys (Macaca mulatta) according to a protocol approved by the Yale University Institutional Animal Care and Use Committee (IACUC). Four monkeys were studied. […] Body temperature was maintained by a water-jacket heating pad. The animal was attached to a physiological monitor, and vital signs (heart rate, blood pressure, respirations, SPO2, EKG, ETCO2, and body temperature) were continuously monitored. A venous line was inserted in one limb for administration of radiotracer, displacement, and blocking drugs. A catheter was placed in the femoral artery in the other limb for blood sampling. Dynamic PET brain scans were performed on a Focus 220 system (Siemens Medical Solutions, Knoxville, TN, USA) with a reconstructed image resolution of approximately 1.5 mm. After a 9-min transmission scan, the radioligand was injected i.v. over 3 min. by an infusion pump. Dynamic PET scans were performed for 3 h (baseline and blocking scans) or 4 h (displacement scan).
(§2) PET images were reconstructed with built-in corrections for attenuation, normalization, scatter, randoms, and deadtime. PET brain images were registered to the animal’s MR image, which was subsequently registered to a brain atlas to define the regions of interest. Dynamic images were reconstructed using a Fourier rebinning and filtered back projection algorithm. A rhesus monkey brain atlas was used for generation of regions of interest (ROIs) and time − activity curves (TACs) for the following ROIs: amygdala, brain stem, caudate nucleus, centrum semiovale (CS), cerebellum, cingulate cortex, frontal cortex, globus pallidus, hippocampus, insula, nucleus accumbens, occipital cortex, pons, putamen, substantia nigra, temporal cortex, and thalamus.
(§3) Volume of distribution (VT, mL·cm^−3) values and the first-order kinetic rate constants of tracer (K1) were derived through 1-tissue (1T) compartment kinetic modeling with the metabolite-corrected arterial plasma input function, which was calculated as the product of the fitted total plasma curve and the parent radiotracer fraction curve. Nondisplaceable volume of distribution (VND) and SV2A occupancy by LEV was calculated using the Lassen plot [32]. Nondisplaceable binding potential (BPND) values were calculated from VT values using CS as reference region, or the VND derived from the blocking study, i.e., BPND = (VT, ROI − VT, CS)/ VT, CS or BPND = (VT/VND) -1.

SV2A [2] = assay: Brain PET imaging with 1TC kinetic modeling
Protocol: as §1, §2, §3

SV2A [3] = target: SV2A (Macaca mulatta, UniProt H9EQH8); conditions: previously determined; cited from earlier work
[4] = Plasma radiometabolite analysis during PET scans; assay type: in vivo, rhesus monkeys; conditions: 30 min p.i.
Protocol: Arterial blood samples were collected during the PET scans to measure the radioactivity in plasma for generation of the metabolite-corrected arterial plasma input function. Plasma radiometabolite analysis was performed using the column-switching method, following a published protocol. Briefly, arterial blood samples were collected at 3-, 8-, 15-, 30-, 60-, 90-, 120-, and 180-min post-injection (p. i.), treated with urea (8 M), filtered, and injected onto a self-packed short column (4.6 × 19 mm) eluting with 1% MeCN in water at a flow rate of 2 mL/min. The sample was then back flushed onto a Gemini-NX column (5 μm, 4.6 mm × 250 mm) eluting with 40% MeCN/60% 0.1 M ammonium formate (pH 6.4) at a flow rate of 1.2 mL/min. The eluent was fraction-collected using an automated spectrum chromatography CF-1 fraction collector. Activity in the whole blood, plasma, filtrated plasma-urea mix, filters, and HPLC fractions were counted with automatic gamma well-counter (Wizard 2, PerkinElmer). The sample recovery rate, extraction efficiency, and HPLC fraction recovery were monitored. The unmetabolized [^18F]SDM-16 parent fraction was determined as the ratio of the sum of radioactivity in fractions containing the parent compound to the total amount of radioactivity collected and fitted with inverted Gamma4 approaches.
[^18F]SDM-16 had higher metabolite-corrected plasma SUV than the other SV2A radiotracers, indicating slower plasma clearance and higher metabolic stability (Fig. 2a). Whole-blood and plasma-input functions were highly consistent between the two animals, with a stable plasma to whole-blood ratio of 0.93 ± 0.13 over the entire 180-min acquisition period (Fig. S1).

[5] = Free base fraction in plasma by modified Henderson-Hasselbalch equation (Eq. 1); conditions: Eq. 1, plasma pH 7.4
[6] = female rhesus macaques, 1-h voiding model; cited from earlier work
[7] = Measurement of lipophilicity (octanol / PBS pH 7.4); assay type: physicochemical; conditions: octanol/PBS pH 7.4
Protocol: The logP of [^18F]SDM-16 was determined by a method modified from previously published procedures. Briefly, an aliquot of […] (10 µCi) of the radioligand was added to a 2-mL microtube containing 0.8 mL of octanol and 0.8 mL of 1 × phosphate buffered saline (1 × PBS, pH 7.4). The mixture was vortexed for 30 s and then centrifuged at 2000 g for 2 min. A subsample of the octanol (0.1 mL) and 1 × PBS (0.5 mL) layers was evaluated with a gamma counter. The major portion of the octanol layer (0.5 mL) was diluted with another 0.3 mL of octanol, mixed with a fresh portion of 0.8 mL of PBS, vortexed, centrifuged, and analyzed as described above. This process was repeated until consistent log P values were obtained, with five consecutive equilibration procedures being performed for each logP measurement. Four separate measurements were performed for [^18F]SDM-16 on different days.

SV2A [8] = conditions: cited from earlier work; for VT (baseline): 1TC
[9] = Plasma free fraction (fp) by ultrafiltration; assay type: in vitro ADME, rhesus monkey; conditions: monkey, plasma (separated from spiked whole blood)
Protocol: The unbound fraction of [^18F]SDM-16 in plasma (fp) of rhesus monkey was measured in triplicate using the ultrafiltration method. Briefly, [^18F]SDM-16 solution was added to 3 mL of whole blood. After incubation at ambient temperature for 5 min, the blood sample was centrifuged at 3900 rpm for 5 min. A sample of the supernatant plasma (0.3 mL) was loaded onto the reservoir of a Centrifree® Ultrafiltration device (Merck Millipore Ltd. Tullagreen, Carrigtwohill, Co. Cork, IRELAND) in triplicate and centrifuged at 1228 g for 20 min. The fp value was calculated as the ratio of radioactivity in the filtrate to that in the plasma.

[10] = estimated from human; cited from earlier work
[11] = parameters: method as in PMID 33826008; conditions: 30 min p.i.; cited from earlier work
[12] = conjugate acid; cited from earlier work

Sequence of SV2A (Macaca mulatta, UniProt H9EQH8) (H9EQH8 1-742): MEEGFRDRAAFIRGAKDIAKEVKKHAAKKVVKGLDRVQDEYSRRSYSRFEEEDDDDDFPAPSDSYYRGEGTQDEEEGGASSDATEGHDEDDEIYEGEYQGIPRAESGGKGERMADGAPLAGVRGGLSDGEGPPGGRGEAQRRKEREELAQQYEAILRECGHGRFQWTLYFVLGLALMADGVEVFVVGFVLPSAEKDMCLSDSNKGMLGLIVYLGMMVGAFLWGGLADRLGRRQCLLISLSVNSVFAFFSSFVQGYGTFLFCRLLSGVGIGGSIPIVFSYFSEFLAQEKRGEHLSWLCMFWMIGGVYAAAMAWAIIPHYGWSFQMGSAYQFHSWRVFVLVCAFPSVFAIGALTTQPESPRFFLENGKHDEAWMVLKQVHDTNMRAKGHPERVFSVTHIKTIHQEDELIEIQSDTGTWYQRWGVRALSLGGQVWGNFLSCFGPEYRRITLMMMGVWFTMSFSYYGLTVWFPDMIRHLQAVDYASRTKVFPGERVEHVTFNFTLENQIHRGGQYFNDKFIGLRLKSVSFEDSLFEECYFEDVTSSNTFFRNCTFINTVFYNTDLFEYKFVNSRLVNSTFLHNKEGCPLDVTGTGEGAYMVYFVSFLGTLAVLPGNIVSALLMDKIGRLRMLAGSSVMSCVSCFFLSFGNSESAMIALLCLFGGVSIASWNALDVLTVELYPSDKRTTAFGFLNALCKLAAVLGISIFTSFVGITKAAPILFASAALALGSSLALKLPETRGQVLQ

Cc1cnccc1CN1C[C@@H](c2cc(F)cc([18F])c2)CC1=O [[^18F]SynVesT-1]
fraction unbound [1]: 0.101
BPND, VND method (SV2A [2]; Amygdala): 4.24 ± 4.05
BPND, VT(CS) method (SV2A [2]; Amygdala): 1.9 ± 1.1
K1 (SV2A [2]; Amygdala): 0.56 ± 0.36 mL/cm^3 per min
BPND, VND method (SV2A [2]; Anterior cingulate): 8.44 ± 4.27
BPND, VT(CS) method (SV2A [2]; Anterior cingulate): 4.1 ± 0.7
K1 (SV2A [2]; Anterior cingulate): 1.05 ± 0.66 mL/cm^3 per min
BPND, VND method (SV2A [2]; Brainstem): 2.30 ± 0.99
BPND, VT(CS) method (SV2A [2]; Brainstem): 0.8 ± 0.0
K1 (SV2A [2]; Brainstem): 1.37 ± 1.26 mL/cm^3 per min
BPND, VND method (SV2A [2]; Caudate): 6.23 ± 2.96
BPND, VT(CS) method (SV2A [2]; Caudate): 3.0 ± 0.4
K1 (SV2A [2]; Caudate): 0.95 ± 0.49 mL/cm^3 per min
BPND, VND method (SV2A [2]; Cerebellum): 4.74 ± 1.81
BPND, VT(CS) method (SV2A [2]; Cerebellum): 2.2 ± 0.2
K1 (SV2A [2]; Cerebellum): 0.88 ± 0.41 mL/cm^3 per min
BPND, VND method (SV2A [2]; Cingulate cortex): 9.04 ± 3.59
BPND, VT(CS) method (SV2A [2]; Cingulate cortex): 4.5 ± 0.4
BPND, VND method (SV2A [2]; Frontal cortex): 8.64 ± 3.59
BPND, VT(CS) method (SV2A [2]; Frontal cortex): 4.3 ± 0.6
K1 (SV2A [2]; Frontal cortex): 0.79 ± 0.39 mL/cm^3 per min
BPND, VND method (SV2A [2]; Globus pallidus): 3.42 ± 1.90
BPND, VT(CS) method (SV2A [2]; Globus pallidus): 1.4 ± 0.3
K1 (SV2A [2]; Globus pallidus): 0.73 ± 0.49 mL/cm^3 per min
in vivo Kd ratio, Kd(tracer)/Kd([^18F]SDM-16) (SV2A [2]; Guo plot of baseline VT): 0.41
BPND, VND method (SV2A [2]; Hippocampus): 5.19 ± 2.56
BPND, VT(CS) method (SV2A [2]; Hippocampus): 2.4 ± 0.4
K1 (SV2A [2]; Hippocampus): 0.68 ± 0.34 mL/cm^3 per min
BPND, VND method (SV2A [2]; Insular cortex): 8.41 ± 3.27
BPND, VT(CS) method (SV2A [2]; Insular cortex): 4.2 ± 0.3
K1 (SV2A [2]; Insular cortex): 0.93 ± 0.48 mL/cm^3 per min
K1 (SV2A [2]; Mean ± SD over brain regions): 0.91 ± 0.28 mL/cm^3 per min
BPND, VND method (SV2A [2]; Nucleus accumbens): 8.41 ± 3.54
BPND, VT(CS) method (SV2A [2]; Nucleus accumbens): 4.1 ± 0.4
K1 (SV2A [2]; Nucleus accumbens): 0.99 ± 0.63 mL/cm^3 per min
BPND, VND method (SV2A [2]; Occipital cortex): 7.61 ± 2.51
BPND, VT(CS) method (SV2A [2]; Occipital cortex): 3.9 ± 0.2
K1 (SV2A [2]; Occipital cortex): 0.88 ± 0.47 mL/cm^3 per min
BPND, VND method (SV2A [2]; Putamen): 6.41 ± 2.96
BPND, VT(CS) method (SV2A [2]; Putamen): 2.9 ± 0.4
K1 (SV2A [2]; Putamen): 1.25 ± 0.82 mL/cm^3 per min
BPND, VND method (SV2A [2]; Temporal cortex): 7.36 ± 2.64
BPND, VT(CS) method (SV2A [2]; Temporal cortex): 3.7 ± 0.3
K1 (SV2A [2]; Temporal cortex): 0.74 ± 0.34 mL/cm^3 per min
BPND, VND method (SV2A [2]; Thalamus): 6.59 ± 3.72
BPND, VT(CS) method (SV2A [2]; Thalamus): 2.9 ± 0.7
K1 (SV2A [2]; Thalamus): 0.93 ± 0.71 mL/cm^3 per min
VND (SV2A [3]): 4.96 mL/cm^3
parent fraction in plasma [4]: 42 ± 13%
fraction present in plasma as free base [5]: 81%
effective dose (ED) [6]: 20 µSv/MBq
logP [7]: 2.32
VT (baseline) (SV2A [8]; Amygdala): 24.8 ± 8.5 mL/cm^3
VT (baseline) (SV2A [8]; Brainstem): 16.3 ± 3.6 mL/cm^3
VT (baseline) (SV2A [8]; Caudate): 35.0 ± 6.3 mL/cm^3
VT (baseline) (SV2A [8]; Centrum semiovale): 8.9 ± 2.0 mL/cm^3
VT (baseline) (SV2A [8]; Cerebellum): 28.9 ± 6.8 mL/cm^3
VT (baseline) (SV2A [8]; Cingulate cortex): 48.5 ± 8.9 mL/cm^3
VT (baseline) (SV2A [8]; Frontal cortex): 47.1 ± 9.1 mL/cm^3
VT (baseline) (SV2A [8]; Globus pallidus): 21.6 ± 4.2 mL/cm^3
VT (baseline) (SV2A [8]; Hippocampus): 30.1 ± 5.6 mL/cm^3
VT (baseline) (SV2A [8]; Insular cortex): 46.1 ± 9.2 mL/cm^3
VT (baseline) (SV2A [8]; Nucleus accumbens): 45.2 ± 7.9 mL/cm^3
VT (baseline) (SV2A [8]; Occipital cortex): 43.7 ± 10.7 mL/cm^3
VT (baseline) (SV2A [8]; Putamen): 34.6 ± 4.9 mL/cm^3
VT (baseline) (SV2A [8]; Temporal cortex): 42.2 ± 10.0 mL/cm^3
VT (baseline) (SV2A [8]; Thalamus): 34.2 ± 3.0 mL/cm^3
fraction unbound at 5 min [9]: 0.43

O=C1C[C@H](c2cc(F)c(F)c(F)c2)CN1Cc1ccncc1[18F] [[^18F]UCB-H]
effective dose (ED) [10]: 15.4 µSv/MBq
VND (SV2A [3]): 7.89 mL/cm^3
parent fraction in plasma [11]: 30 ± 3%
logP [7]: 2.31
brain tissue free fraction fND (SV2A [8]; calculated from K1/k2 using 2TCM-c): 6.1%
fraction unbound at 5 min [9]: 0.43

lutidine
pKa exp. [12]: 6.77
